# Experimental data published in ChEMBL document CHEMBL4828721, “Substituted dienes prepared from betulinic acid - Synthesis, cytotoxicity, mechanism of action, and pharmacological parameters” (Eur J Med Chem, 2021).
# pIC50: −log10 of the molar value.
# Tested on: CCRF-CEM
# Test: Cytotoxicity against human CCRF-CEM cells assessed as reduction in cell viability measured after 72 hrs by MTS assay
# Assay type: functional, cell-based
# Details: not given
row,Compound,pIC50
1,C=C(/C=C/C1CCCCC1)[C@@H]1CC[C@]2(C(=O)O)CC[C@]3(C)[C@H](CC[C@@H]4[C@@]5(C)CC[C@H](O)C(C)(C)[C@@H]5CC[C@]43C)[C@@H]12,5.10
2,C=C(/C=C/c1ccccc1C#N)[C@@H]1CC[C@]2(C(=O)O)CC[C@]3(C)[C@H](CC[C@@H]4[C@@]5(C)CC[C@H](O)C(C)(C)[C@@H]5CC[C@]43C)[C@@H]12,4.63
3,C=C(C=O)[C@@H]1CC[C@]2(C(=O)O)CC[C@]3(C)[C@H](CC[C@@H]4[C@@]5(C)CC[C@H](O)C(C)(C)[C@@H]5CC[C@]43C)[C@@H]12,6.10
4,C=C(/C=C/c1ccc(Cl)cc1)[C@@H]1CC[C@]2(C(=O)O)CC[C@]3(C)[C@H](CC[C@@H]4[C@@]5(C)CC[C@H](O)C(C)(C)[C@@H]5CC[C@]43C)[C@@H]12,5.27
5,C=C(/C=C/c1ccccc1[N+](=O)[O-])[C@@H]1CC[C@]2(C(=O)O)CC[C@]3(C)[C@H](CC[C@@H]4[C@@]5(C)CC[C@H](O)C(C)(C)[C@@H]5CC[C@]43C)[C@@H]12,4.63

# Tested on: CEM-DNR
# Test: Cytotoxicity against daunorubicin resistant human CEM-DNR cells assessed as reduction in cell viability measured after 72 hrs by MTS assay
# Assay type: functional, cell-based
# Details: not given
row,Compound,pIC50
1,C=C(/C=C/C1CCCCC1)[C@@H]1CC[C@]2(C(=O)O)CC[C@]3(C)[C@H](CC[C@@H]4[C@@]5(C)CC[C@H](O)C(C)(C)[C@@H]5CC[C@]43C)[C@@H]12,4.34
2,C=C(/C=C/c1ccccc1C#N)[C@@H]1CC[C@]2(C(=O)O)CC[C@]3(C)[C@H](CC[C@@H]4[C@@]5(C)CC[C@H](O)C(C)(C)[C@@H]5CC[C@]43C)[C@@H]12,4.57
3,C=C(C=O)[C@@H]1CC[C@]2(C(=O)O)CC[C@]3(C)[C@H](CC[C@@H]4[C@@]5(C)CC[C@H](O)C(C)(C)[C@@H]5CC[C@]43C)[C@@H]12,5.42
4,C=C(/C=C/c1ccc(Cl)cc1)[C@@H]1CC[C@]2(C(=O)O)CC[C@]3(C)[C@H](CC[C@@H]4[C@@]5(C)CC[C@H](O)C(C)(C)[C@@H]5CC[C@]43C)[C@@H]12,4.48
5,C=C(/C=C/c1ccccc1[N+](=O)[O-])[C@@H]1CC[C@]2(C(=O)O)CC[C@]3(C)[C@H](CC[C@@H]4[C@@]5(C)CC[C@H](O)C(C)(C)[C@@H]5CC[C@]43C)[C@@H]12,4.51

# Tested on: HCT-116
# Test: Cytotoxicity against human HCT-116 cells assessed as reduction in cell viability measured after 72 hrs by MTS assay
# Assay type: functional, cell-based
# Details: HCT-116, 72 h
row,Compound,pIC50
1,C=C(/C=C/C1CCCCC1)[C@@H]1CC[C@]2(C(=O)O)CC[C@]3(C)[C@H](CC[C@@H]4[C@@]5(C)CC[C@H](O)C(C)(C)[C@@H]5CC[C@]43C)[C@@H]12,4.82
2,C=C(/C=C/c1ccccc1C#N)[C@@H]1CC[C@]2(C(=O)O)CC[C@]3(C)[C@H](CC[C@@H]4[C@@]5(C)CC[C@H](O)C(C)(C)[C@@H]5CC[C@]43C)[C@@H]12,4.44
3,C=C(C=O)[C@@H]1CC[C@]2(C(=O)O)CC[C@]3(C)[C@H](CC[C@@H]4[C@@]5(C)CC[C@H](O)C(C)(C)[C@@H]5CC[C@]43C)[C@@H]12,5.72
4,C=C(/C=C/c1ccc(Cl)cc1)[C@@H]1CC[C@]2(C(=O)O)CC[C@]3(C)[C@H](CC[C@@H]4[C@@]5(C)CC[C@H](O)C(C)(C)[C@@H]5CC[C@]43C)[C@@H]12,4.40
5,C=C(/C=C/c1ccccc1[N+](=O)[O-])[C@@H]1CC[C@]2(C(=O)O)CC[C@]3(C)[C@H](CC[C@@H]4[C@@]5(C)CC[C@H](O)C(C)(C)[C@@H]5CC[C@]43C)[C@@H]12,4.46

# Tested on: not listed separately
# Test: Cytotoxicity against human HCT116 p53-null cells assessed as reduction in cell viability measured after 72 hrs by MTS assay
# Assay type: functional, cell-based
# Details: not given
row,Compound,pIC50
1,C=C(/C=C/C1CCCCC1)[C@@H]1CC[C@]2(C(=O)O)CC[C@]3(C)[C@H](CC[C@@H]4[C@@]5(C)CC[C@H](O)C(C)(C)[C@@H]5CC[C@]43C)[C@@H]12,< 4.30
2,C=C(/C=C/c1ccccc1C#N)[C@@H]1CC[C@]2(C(=O)O)CC[C@]3(C)[C@H](CC[C@@H]4[C@@]5(C)CC[C@H](O)C(C)(C)[C@@H]5CC[C@]43C)[C@@H]12,4.33
3,C=C(C=O)[C@@H]1CC[C@]2(C(=O)O)CC[C@]3(C)[C@H](CC[C@@H]4[C@@]5(C)CC[C@H](O)C(C)(C)[C@@H]5CC[C@]43C)[C@@H]12,5.72
4,C=C(/C=C/c1ccc(Cl)cc1)[C@@H]1CC[C@]2(C(=O)O)CC[C@]3(C)[C@H](CC[C@@H]4[C@@]5(C)CC[C@H](O)C(C)(C)[C@@H]5CC[C@]43C)[C@@H]12,4.41
5,C=C(/C=C/c1ccccc1[N+](=O)[O-])[C@@H]1CC[C@]2(C(=O)O)CC[C@]3(C)[C@H](CC[C@@H]4[C@@]5(C)CC[C@H](O)C(C)(C)[C@@H]5CC[C@]43C)[C@@H]12,4.41

# Tested on: K562
# Test: Cytotoxicity against human K562 cells assessed as reduction in cell viability measured after 72 hrs by MTS assay
# Assay type: functional, cell-based
# Details: K562, 72 h
row,Compound,pIC50
1,C=C(/C=C/C1CCCCC1)[C@@H]1CC[C@]2(C(=O)O)CC[C@]3(C)[C@H](CC[C@@H]4[C@@]5(C)CC[C@H](O)C(C)(C)[C@@H]5CC[C@]43C)[C@@H]12,< 4.30
2,C=C(/C=C/c1ccccc1C#N)[C@@H]1CC[C@]2(C(=O)O)CC[C@]3(C)[C@H](CC[C@@H]4[C@@]5(C)CC[C@H](O)C(C)(C)[C@@H]5CC[C@]43C)[C@@H]12,< 4.30
3,C=C(C=O)[C@@H]1CC[C@]2(C(=O)O)CC[C@]3(C)[C@H](CC[C@@H]4[C@@]5(C)CC[C@H](O)C(C)(C)[C@@H]5CC[C@]43C)[C@@H]12,5.47
4,C=C(/C=C/c1ccc(Cl)cc1)[C@@H]1CC[C@]2(C(=O)O)CC[C@]3(C)[C@H](CC[C@@H]4[C@@]5(C)CC[C@H](O)C(C)(C)[C@@H]5CC[C@]43C)[C@@H]12,4.33
5,C=C(/C=C/c1ccccc1[N+](=O)[O-])[C@@H]1CC[C@]2(C(=O)O)CC[C@]3(C)[C@H](CC[C@@H]4[C@@]5(C)CC[C@H](O)C(C)(C)[C@@H]5CC[C@]43C)[C@@H]12,< 4.30

# Tested on: not listed separately
# Test: Cytotoxicity against paclitaxel resistant human K562-Tax cells assessed as reduction in cell viability measured after 72 hrs by MTS assay
# Assay type: functional, cell-based
# Details: not given
row,Compound,pIC50
1,C=C(/C=C/C1CCCCC1)[C@@H]1CC[C@]2(C(=O)O)CC[C@]3(C)[C@H](CC[C@@H]4[C@@]5(C)CC[C@H](O)C(C)(C)[C@@H]5CC[C@]43C)[C@@H]12,4.36
2,C=C(/C=C/c1ccccc1C#N)[C@@H]1CC[C@]2(C(=O)O)CC[C@]3(C)[C@H](CC[C@@H]4[C@@]5(C)CC[C@H](O)C(C)(C)[C@@H]5CC[C@]43C)[C@@H]12,4.61
3,C=C(C=O)[C@@H]1CC[C@]2(C(=O)O)CC[C@]3(C)[C@H](CC[C@@H]4[C@@]5(C)CC[C@H](O)C(C)(C)[C@@H]5CC[C@]43C)[C@@H]12,5.89
4,C=C(/C=C/c1ccc(Cl)cc1)[C@@H]1CC[C@]2(C(=O)O)CC[C@]3(C)[C@H](CC[C@@H]4[C@@]5(C)CC[C@H](O)C(C)(C)[C@@H]5CC[C@]43C)[C@@H]12,4.53
5,C=C(/C=C/c1ccccc1[N+](=O)[O-])[C@@H]1CC[C@]2(C(=O)O)CC[C@]3(C)[C@H](CC[C@@H]4[C@@]5(C)CC[C@H](O)C(C)(C)[C@@H]5CC[C@]43C)[C@@H]12,4.53

# Tested on: A549
# Test: Cytotoxicity against human A549 cells assessed as reduction in cell viability measured after 72 hrs by MTS assay
# Assay type: functional, cell-based
# Details: A549, 72 h
row,Compound,pIC50
1,C=C(/C=C/C1CCCCC1)[C@@H]1CC[C@]2(C(=O)O)CC[C@]3(C)[C@H](CC[C@@H]4[C@@]5(C)CC[C@H](O)C(C)(C)[C@@H]5CC[C@]43C)[C@@H]12,< 4.30
2,C=C(/C=C/c1ccccc1C#N)[C@@H]1CC[C@]2(C(=O)O)CC[C@]3(C)[C@H](CC[C@@H]4[C@@]5(C)CC[C@H](O)C(C)(C)[C@@H]5CC[C@]43C)[C@@H]12,< 4.30
3,C=C(C=O)[C@@H]1CC[C@]2(C(=O)O)CC[C@]3(C)[C@H](CC[C@@H]4[C@@]5(C)CC[C@H](O)C(C)(C)[C@@H]5CC[C@]43C)[C@@H]12,< 4.30
4,C=C(/C=C/c1ccc(Cl)cc1)[C@@H]1CC[C@]2(C(=O)O)CC[C@]3(C)[C@H](CC[C@@H]4[C@@]5(C)CC[C@H](O)C(C)(C)[C@@H]5CC[C@]43C)[C@@H]12,4.34
5,C=C(/C=C/c1ccccc1[N+](=O)[O-])[C@@H]1CC[C@]2(C(=O)O)CC[C@]3(C)[C@H](CC[C@@H]4[C@@]5(C)CC[C@H](O)C(C)(C)[C@@H]5CC[C@]43C)[C@@H]12,4.34

# Tested on: U2OS
# Test: Cytotoxicity against human U2OS cells assessed as reduction in cell viability measured after 72 hrs by MTS assay
# Assay type: functional, cell-based
# Details: not given
row,Compound,pIC50
1,C=C(/C=C/C1CCCCC1)[C@@H]1CC[C@]2(C(=O)O)CC[C@]3(C)[C@H](CC[C@@H]4[C@@]5(C)CC[C@H](O)C(C)(C)[C@@H]5CC[C@]43C)[C@@H]12,< 4.30
2,C=C(/C=C/c1ccccc1C#N)[C@@H]1CC[C@]2(C(=O)O)CC[C@]3(C)[C@H](CC[C@@H]4[C@@]5(C)CC[C@H](O)C(C)(C)[C@@H]5CC[C@]43C)[C@@H]12,4.39
3,C=C(C=O)[C@@H]1CC[C@]2(C(=O)O)CC[C@]3(C)[C@H](CC[C@@H]4[C@@]5(C)CC[C@H](O)C(C)(C)[C@@H]5CC[C@]43C)[C@@H]12,5.89
4,C=C(/C=C/c1ccc(Cl)cc1)[C@@H]1CC[C@]2(C(=O)O)CC[C@]3(C)[C@H](CC[C@@H]4[C@@]5(C)CC[C@H](O)C(C)(C)[C@@H]5CC[C@]43C)[C@@H]12,4.59
5,C=C(/C=C/c1ccccc1[N+](=O)[O-])[C@@H]1CC[C@]2(C(=O)O)CC[C@]3(C)[C@H](CC[C@@H]4[C@@]5(C)CC[C@H](O)C(C)(C)[C@@H]5CC[C@]43C)[C@@H]12,4.48

# Tested on: BJ
# Test: Cytotoxicity against human BJ cells assessed as reduction in cell viability measured after 72 hrs by MTS assay
# Assay type: cell-based
# Details: not given
row,Compound,pIC50
1,C=C(/C=C/C1CCCCC1)[C@@H]1CC[C@]2(C(=O)O)CC[C@]3(C)[C@H](CC[C@@H]4[C@@]5(C)CC[C@H](O)C(C)(C)[C@@H]5CC[C@]43C)[C@@H]12,< 4.30
2,C=C(/C=C/c1ccccc1C#N)[C@@H]1CC[C@]2(C(=O)O)CC[C@]3(C)[C@H](CC[C@@H]4[C@@]5(C)CC[C@H](O)C(C)(C)[C@@H]5CC[C@]43C)[C@@H]12,< 4.30
3,C=C(C=O)[C@@H]1CC[C@]2(C(=O)O)CC[C@]3(C)[C@H](CC[C@@H]4[C@@]5(C)CC[C@H](O)C(C)(C)[C@@H]5CC[C@]43C)[C@@H]12,5.17
4,C=C(/C=C/c1ccc(Cl)cc1)[C@@H]1CC[C@]2(C(=O)O)CC[C@]3(C)[C@H](CC[C@@H]4[C@@]5(C)CC[C@H](O)C(C)(C)[C@@H]5CC[C@]43C)[C@@H]12,< 4.30
5,C=C(/C=C/c1ccccc1[N+](=O)[O-])[C@@H]1CC[C@]2(C(=O)O)CC[C@]3(C)[C@H](CC[C@@H]4[C@@]5(C)CC[C@H](O)C(C)(C)[C@@H]5CC[C@]43C)[C@@H]12,< 4.30

# Tested on: MRC5
# Test: Cytotoxicity against human MRC5 cells assessed as reduction in cell viability measured after 72 hrs by MTS assay
# Assay type: cell-based
# Details: MRC5, 72 h
row,Compound,pIC50
1,C=C(/C=C/C1CCCCC1)[C@@H]1CC[C@]2(C(=O)O)CC[C@]3(C)[C@H](CC[C@@H]4[C@@]5(C)CC[C@H](O)C(C)(C)[C@@H]5CC[C@]43C)[C@@H]12,< 4.30
2,C=C(/C=C/c1ccccc1C#N)[C@@H]1CC[C@]2(C(=O)O)CC[C@]3(C)[C@H](CC[C@@H]4[C@@]5(C)CC[C@H](O)C(C)(C)[C@@H]5CC[C@]43C)[C@@H]12,< 4.30
3,C=C(C=O)[C@@H]1CC[C@]2(C(=O)O)CC[C@]3(C)[C@H](CC[C@@H]4[C@@]5(C)CC[C@H](O)C(C)(C)[C@@H]5CC[C@]43C)[C@@H]12,5.59
4,C=C(/C=C/c1ccc(Cl)cc1)[C@@H]1CC[C@]2(C(=O)O)CC[C@]3(C)[C@H](CC[C@@H]4[C@@]5(C)CC[C@H](O)C(C)(C)[C@@H]5CC[C@]43C)[C@@H]12,< 4.30
5,C=C(/C=C/c1ccccc1[N+](=O)[O-])[C@@H]1CC[C@]2(C(=O)O)CC[C@]3(C)[C@H](CC[C@@H]4[C@@]5(C)CC[C@H](O)C(C)(C)[C@@H]5CC[C@]43C)[C@@H]12,< 4.30
